Assay results from patent US20120270928A1, “MICRORNA COMPOUNDS AND METHODS FOR MODULATING MIR-21 ACTIVITY” (REGULUS THERAPEUTICS INC., priority 2011, published 2012).
Strand notation (5' to 3'): a small letter for the sugar, then the base; units joined by * are phosphorothioate-linked, units joined directly phosphodiester-linked; [ ] holds rarer units or linkages, { } end groups; capitals alone tell only the bases. e = 2'-O-(2-methoxyethyl) (MOE); l = locked nucleic acid (LNA); k = constrained ethyl (cEt); [5mC] = 5-methylcytosine; d = 2'-deoxy (DNA)

Key:
[1] = test system: UUO model of kidney fibrosis; test: Unilateral ureteral obstruction (UUO) model of kidney fibrosis: kidney collagen 1A1 and collagen 3A1 expression by real-time PCR; format: in vivo, mice; details: UUO; 20 mg/kg at days -5, -3, +3; kidney at day 10
Experimental: Unilateral ureteral obstruction (UUO) is a well-established experimental model of renal injury leading to interstitial fibrosis, and thus is used as an experimental model that is reflective of human kidney disease. UUO is induced by surgically ligating a single ureter. As fibrosis is characterized by an increase in collagen, the presence and extent of kidney fibrosis may be determined by measuring collagen content. Both collagen 1A1 (Col 1A1) and collagen 3A1 (Col 3A1) are measured to assess collagen content. Kidney fibrosis may be visualized by staining tissue samples with picro-sirius red to detect increases in collagen content. Kidney fibrosis may also be observed by measuring the amount of hydroxyproline, which is a major component of collagen, in a sample.
The cEt-containing anti-miR-21 compounds found to be active in the luciferase assay were tested in the UUO model of kidney fibrosis. 25919 comprising 2′-MOE and 2′-fluoro modifications is known to inhibit miR-21 activity in vivo and was included as a positive control. Groups of 8 animals each were treated as follows: UUO only, UUO with PBS, or UUO with anti-miR-21 compound. Relative to the day of the UUO procedure, PBS or anti-miR-21 compound was administered at days −3, −1, and +5. Anti-miR-21 compounds were administered at a dose of 20 mg/kg. As the anti-miR compounds were administered prior to the UUO procedure, this dosing regimen is considered a prophylactic treatment. At day 11, animals were sacrificed and kidney was isolated for measurement of collagen expression. Collagen expression was measured by real-time PCR and normalized first to GAPDH and then to the sham control animals.
The UUO study was repeated to confirm the activity of 25070. The anti-miR was administered subcutaneously at a dose of 20 mg/kg.
Control treatment groups included UUO only (sham) and UUO with PBS administered subcutaneously. An additional control group included UUO with Tween-MC/20 carrier perorally. 25070 administered subcutaneously at dose of 20 mg/kg at 5 days prior to, 2 days prior to, and 3 days after, the UUO procedure. Irbesartan was administered perorally on daily on days 0 through 7 following the UUO procedure. Animals were sacrificed on Day 10 following the UUO procedure. Kidney tissue was collected for measurement of collagen 1A1 and collagen 3A1 expression.
Compounds 25220 and 25221, as well as 25923, were tested in the UUO model for their effects on fibrosis. Groups of 8 animals each were treated as follows: sham surgery, UUO with PBS, UUO with 25220, UUO with 25221, or UUO with 25923. Relative to the day of the UUO procedure, PBS or anti-miR-21 compound was administered at days −5, −3, and +3. Anti-miR-21 compounds were administered at a dose of 20 mg/kg. As the anti-miR compounds were administered prior to the UUO procedure, this dosing regimen is considered a prophylactic treatment. At day 10, animals were sacrificed and kidney was isolated for measurement of collagen expression. Collagen expression was measured by real-time PCR and normalized to GAPDH.

[2] = test system: miR-21; test: miR-21 luciferase sensor assay in Hela cells; format: cell-based; details: for inhibition of miR-21 activity in the luciferase assay (in words) / luciferase value normalized to beta-galactosidase activity: Hela cells
Experimental: The compounds were assessed for miR-21 inhibitory activity in a luciferase assay. A microRNA luciferase sensor construct was engineered using pGL3-MCS2 (Promega). The construct was introduced into Hela cells to test the ability of anti-miR compounds to inhibit activity of miR-21. In this assay, miR-21 present in the Hela cells binds to its cognate site(s) in the luciferase sensor construct, and suppresses luciferase expression. When the appropriate anti-miR is introduced into the cells, it binds to miR-21 and relieves suppression of luciferase expression. Thus, in this assay anti-miRs that are effective inhibitors of miR-21 expression will cause an increase in luciferase expression.
Hela cells (ATCC), stably transfected with a luciferase construct engineered to contain a sequence complementary of miR-21, were seeded in T-170 flasks (BD Falcon) at 3.5*10^6 cells/flask. Hela cells were grown in Dulbecco's Modified Eagle Medium with High Glucose (Invitrogen).
Each flask of Hela cells was transfected with 0.5 ug of a phRL sensor plasmid (Promega) expressing Renilla to be used in normalization. Hela cells were transfected using 20 ul Lipofectamine 2000/flask (Invitrogen). After 4 hours of transfection, cells were washed with PBS and trypsinized Hela cells were plated at 40 k/well in 24 well plates (BD Falcon) and left overnight.
Hela cells were transfected with anti-miRs using Lipofectin (Invitrogen) at 2.5 ul Lipofectin/100 nM ASO/ml Opti-MEM I Reduced Serum Medium (Invitrogen) for 4 hours. After ASO transfection, Hela cells were refed with Dulbecco's Modified Eagle Medium with High Glucose (Invitrogen).
Hela cells are passively lysed and luciferase activity measured using the Dual-Luciferase Reporter Assay System (Promega).
The luciferase assay was performed to test the ability of anti-miRs with the nucleoside patterns described herein to inhibit the activity of miR-21. Results were compared to a ‘mock’ treatment, in which cells received no anti-miR treatment. The experiment was repeated and results of two experimental replicates are shown in the following Table B, as the luciferase value normalized to beta-galactosidase activity.
The luciferase assay was performed as described herein to test the ability of anti-miRs in Table F to inhibit the activity of miR-21. Results were compared to a ‘mock’ treatment, in which cells received no anti-miR treatment. The experiment was repeated and results of two experimental replicates are shown in the following Table D, as fold change in luciferase value relative to the mock treatment.

[3] = concentration of anti-miR compound 0.2 (unit not given)
[4] = concentration of anti-miR compound 0.6 (unit not given)
[5] = concentration of anti-miR compound 1.9 (unit not given)
[6] = concentration of anti-miR compound 5.6 (unit not given)
[7] = concentration of anti-miR compound 16.7 (unit not given)
[8] = concentration of anti-miR compound 50.0 (unit not given)
[9] = 500 nM oligonucleotide, two experimental replicates

## AECSATCSAGTCSTGAUSAAGCSUsAS (ACATCAGTCTGATAAGCTA; sugar and backbone modifications, chemistry not fully specified) [Compound 25221]
[1]
  collagen 1A1 expression (FIG. 2A, in words): reduced collagen 1A1 and collagen 3A1 expression by a stastically significant amount
  collagen 3A1 expression (FIG. 2B, in words): reduced collagen 1A1 and collagen 3A1 expression by a stastically significant amount

## AECSATCSASGTCSUSGAUSASAGCSUsAE (ACATCAGTCTGATAAGCTA; sugar and backbone modifications, chemistry not fully specified) [Compound 25220]
[1]
  collagen 1A1 expression (FIG. 2A, in words): reduced collagen 1A1 and collagen 3A1 expression by a stastically significant amount
  collagen 3A1 expression (FIG. 2B, in words): reduced collagen 1A1 and collagen 3A1 expression by a stastically significant amount

## AE^MeCLAETE^MeCLAEGETE^MeCLTEGEAE^MeTLAEAEGE^MeCLTEAE (antisense eA*l[5mC]*eA*eT*l[5mC]*eA*eG*eT*l[5mC]*eT*eG*eA*lT*eA*eA*eG*l[5mC]*eT*eA) [Compound 25117, variation of 25070: each non-bicyclic nucleoside is 2′-MOE, each cytosine 5-methyl cytosine]
[2]
  inhibition of miR-21 activity in the luciferase assay (in words): not effective inhibitors of miR-21
[2]; [3]
  fold change in luciferase value relative to the mock treatment: 1.05 fold change
[2]; [4]
  fold change in luciferase value relative to the mock treatment: 1.15 fold change
[2]; [5]
  fold change in luciferase value relative to the mock treatment: 1.14 fold change
[2]; [6]
  fold change in luciferase value relative to the mock treatment: 3.64 fold change
[2]; [7]
  fold change in luciferase value relative to the mock treatment: 7.36 fold change
[2]; [8]
  fold change in luciferase value relative to the mock treatment: 2.91 fold change

## AE^MeCSAETE^MeCSAEGETE^MeCSTEGEAE^MeTSAEAEGE^MeCSTEAE (antisense eA*k[5mC]*eA*eT*k[5mC]*eA*eG*eT*k[5mC]*eT*eG*eA*kT*eA*eA*eG*k[5mC]*eT*eA; further chemistry not given here) [Compound 25116, variation of 25070: each non-bicyclic nucleoside is 2′-MOE, each cytosine 5-methyl cytosine]
[2]
  inhibition of miR-21 activity in the luciferase assay (in words): not effective inhibitors of miR-21
[2]; [3]
  fold change in luciferase value relative to the mock treatment: 1.06 fold change
[2]; [4]
  fold change in luciferase value relative to the mock treatment: 0.98 fold change
[2]; [5]
  fold change in luciferase value relative to the mock treatment: 1.06 fold change
[2]; [6]
  fold change in luciferase value relative to the mock treatment: 2.47 fold change
[2]; [7]
  fold change in luciferase value relative to the mock treatment: 5.64 fold change
[2]; [8]
  fold change in luciferase value relative to the mock treatment: 1.98 fold change

## AE^MeCSAT^MeCSAGT^MeCSTGATSAAG^MeCSTAE (antisense ACATCAGTCTGATAAGCTA; MOE ends, cEt, 5-methyl C, unmarked nucleosides not given here, further chemistry not given here) [Compound 25922, variation of 25070: each cytosine is a 5-methyl cytosine]
[2]
  inhibition of miR-21 activity in the luciferase assay (in words): inhibition of miR-21 in a dose-dependent manner
[2]; [3]
  fold change in luciferase value relative to the mock treatment: 1.02 fold change
[2]; [4]
  fold change in luciferase value relative to the mock treatment: 1.10 fold change
[2]; [5]
  fold change in luciferase value relative to the mock treatment: 1.34 fold change
[2]; [6]
  fold change in luciferase value relative to the mock treatment: 8.81 fold change
[2]; [7]
  fold change in luciferase value relative to the mock treatment: 11.60 fold change
[2]; [8]
  fold change in luciferase value relative to the mock treatment: 11.46 fold change

## AE^MeCSAT^MeCSAGT^MeCSTGATSAAG^MeCSTAS (antisense eA*k[5mC]*dA*dT*k[5mC]*dA*dG*dT*k[5mC]*dT*dG*dA*kT*dA*dA*dG*k[5mC]*dT*kA; further chemistry not given here) [Compound 25924, variation of 25070: 3′-terminal cEt nucleoside and each cytosine is a 5-methyl cytosine]
[2]
  inhibition of miR-21 activity in the luciferase assay (in words): inhibition of miR-21 in a dose-dependent manner
[2]; [3]
  fold change in luciferase value relative to the mock treatment: 1.10 fold change
[2]; [4]
  fold change in luciferase value relative to the mock treatment: 1.25 fold change
[2]; [5]
  fold change in luciferase value relative to the mock treatment: 1.37 fold change
[2]; [6]
  fold change in luciferase value relative to the mock treatment: 7.80 fold change
[2]; [7]
  fold change in luciferase value relative to the mock treatment: 13.01 fold change
[2]; [8]
  fold change in luciferase value relative to the mock treatment: 8.99 fold change

## AeTe^MeCeASGSTe^MeCeTeGSASTeAeASGS^MeCeTeAe [Compound 25077]
[2]; 4 nM oligonucleotide
  luciferase value normalized to beta-galactosidase activity: 45
[2]; 20 nM oligonucleotide
  luciferase value normalized to beta-galactosidase activity: 33
[2]; 100 nM oligonucleotide
  luciferase value normalized to beta-galactosidase activity: 42
[2]; [9]
  luciferase value normalized to beta-galactosidase activity: 40
[2]; .16 nM oligonucleotide
  luciferase value normalized to beta-galactosidase activity: 34
[2]; .8 nM oligonucleotide
  luciferase value normalized to beta-galactosidase activity: 33

## AeTe^MeCeAeGeTe^MeCeTeGSASTeASASGe^MeCeUSAS [Compound 25731]
[2]; 4 nM oligonucleotide
  luciferase value normalized to beta-galactosidase activity: 32
[2]; 20 nM oligonucleotide
  luciferase value normalized to beta-galactosidase activity: 39
[2]; 100 nM oligonucleotide
  luciferase value normalized to beta-galactosidase activity: 38
[2]; [9]
  luciferase value normalized to beta-galactosidase activity: 59
[2]; .16 nM oligonucleotide
  luciferase value normalized to beta-galactosidase activity: 34
[2]; .8 nM oligonucleotide
  luciferase value normalized to beta-galactosidase activity: 45

## Ae^MeCAST^MeCAGST^MeCTGASTASAGS^MeCTAe (ACATCAGTCTGATAAGCTA; listed as DNA, chemistry not fully specified) [Compound 25071]
[2]; 4 nM oligonucleotide
  luciferase value normalized to beta-galactosidase activity: 50
[2]; 20 nM oligonucleotide
  luciferase value normalized to beta-galactosidase activity: 63
[2]; 100 nM oligonucleotide
  luciferase value normalized to beta-galactosidase activity: 53
[2]; [9]
  luciferase value normalized to beta-galactosidase activity: 42
[2]; .16 nM oligonucleotide
  luciferase value normalized to beta-galactosidase activity: 48
[2]; .8 nM oligonucleotide
  luciferase value normalized to beta-galactosidase activity: 36

## Te^MeCASA^MeCAST^MeCAGST^MeCTGASTAAGS^MeCTAe (TCAACATCAGTCTGATAAGCTA; cEt, 5-methyl C and phosphorothioate modifications, code letters not given here, further chemistry not given here) [Compound 25067]
[2]; 4 nM oligonucleotide
  luciferase value normalized to beta-galactosidase activity: 43
[2]; 20 nM oligonucleotide
  luciferase value normalized to beta-galactosidase activity: 41
[2]; 100 nM oligonucleotide
  luciferase value normalized to beta-galactosidase activity: 30
[2]; [9]
  luciferase value normalized to beta-galactosidase activity: 42
[2]; .16 nM oligonucleotide
  luciferase value normalized to beta-galactosidase activity: 38
[2]; .8 nM oligonucleotide
  luciferase value normalized to beta-galactosidase activity: 23
